Experimental data taken from paper PMC12198282, “Application of a high-density microelectrode array assay using a 3D human iPSC-derived brain microphysiological system model for in vitro neurotoxicity screening of environmental compounds” (Archives of Toxicology, 2025).
Read-outs that look alike come from different tables or passages of the source. Marks after values point to notes of the source that are not given here.

Assays:
2D rat cortical cultures [1] = details: cytotoxicity AlamarBlue, cited from earlier work
2D rat cortical cultures [2] = details: cited from earlier work
BrainSpheres = experiment: Cytotoxicity evaluation, resazurin assay (BrainSphere.Cyto); assay type: cell-based, human; details: for AC50: read-out: ac50 BrainSphere.Cyto; as to hitc BrainSphere.Cyto: key: 1 (active); 0 (inactive)
Protocol: For the resazurin assay, BrainSpheres were cultured for 7 weeks in non-treated 6-well plates under gyratory shaking. Subsequently, the cells were exposed in the same manner as the HD-MEA plates. This assay was used to determine cell viability after exposure for 13 days to the different compounds. After exposure, resazurin diluted in PBS was added directly to the 6-well plates to a final concentration of 0.1 mg/ml. The plates were then put in an incubator for 3 h at 37 °C, 5% CO2. Then, 100 µl of the media was collected and transferred in a 96-well plate for fluorescence analysis, which was done at ex:530 nm/em:590 nm in a multi-well fluorometric reader CytoFluor series 4000 (PerSeptive Biosystems, Inc).
Ten metrics were measured to evaluate changes in neural activity in the BrainSphere MEA assay (Table 3). Considering the complexity of the data which includes seven recording days for each single ROI in a well, an area under the curve (AUC) metric was used to reduce activity across time as described in previous publications (Brown et al. [2016]; Frank et al. [2017b]; Shafer et al. [2019]). […] For concentration–response modeling, the mean AUC values across all the BrainSpheres per well (technical replicates) was computed for each endpoint, such that each concentration included biological replicates from at least three separate wells on three separate plates, representing each individual experiment. The mean AUC values were used for concentration–response modeling using the R package tcplfit2 (version 0.1.6) (Sheffield et al. [2022]). Data were normalized as a percent of vehicle control wells by plate using the equation: resp.pc=rval-bval/bval×100 where resp.pc is the percent of control value, rval is the response value, and bval is the baseline value (defined as the mean of the vehicle control and the lowest tested concentration). […] The activity cutoff was defined as 3 times the median absolute deviation (bmad) of baseline values. A curve was defined as ‘active’ if the continuous hit call was ≥ 0.9. See Supplemental Table 1 for the bmad, activity cutoff threshold, SD, and benchmark response for each endpoint in the BrainSphere MEA. Potency was defined as the concentration at 50% maximal activity (AC50 log10 µM).
For hitc CCTE Shafer MEA dev active electrodes number in this document: key: 1 (active); 0 (inactive).
For hitc CCTE Shafer MEA dev burst duration mean in this document: key: 1 (active); 0 (inactive).
For hitc CCTE Shafer MEA dev burst rate in this document: key: 1 (active); 0 (inactive).
For hitc CCTE Shafer MEA dev bursting electrodes number in this document: key: 1 (active); 0 (inactive).
For hitc CCTE Shafer MEA dev correlation coefficient mean in this document: key: 1 (active); 0 (inactive).
For hitc CCTE Shafer MEA dev firing rate mean in this document: key: 1 (active); 0 (inactive).
For hitc CCTE Shafer MEA dev inter network spike interval mean in this document: key: 1 (active); 0 (inactive).
For hitc CCTE Shafer MEA dev interburst interval mean in this document: key: 1 (active); 0 (inactive).
For hitc CCTE Shafer MEA dev mutual information norm in this document: key: 1 (active); 0 (inactive).
For hitc CCTE Shafer MEA dev network spike duration std in this document: key: 1 (active); 0 (inactive).
For hitc CCTE Shafer MEA dev network spike number in this document: key: 1 (active); 0 (inactive).
For hitc CCTE Shafer MEA dev network spike peak in this document: key: 1 (active); 0 (inactive).
For hitc CCTE Shafer MEA dev per burst interspike interval in this document: key: 1 (active); 0 (inactive).
For hitc CCTE Shafer MEA dev per burst spike percent in this document: key: 1 (active); 0 (inactive).
For hitc CCTE Shafer MEA dev per network spike spike number mean in this document: key: 1 (active); 0 (inactive).
For hitc CCTE Shafer MEA dev per network spike spike percent in this document: key: 1 (active); 0 (inactive).
For hitc CCTE Shafer MEA dev spike duration mean in this document: key: 1 (active); 0 (inactive).

CN(C)C(=O)C(CCN1CCC(O)(c2ccc(Cl)cc2)CC1)(c1ccccc1)c1ccccc1 [Loperamide]
AC50 (2D rat cortical cultures [1]; read-out: ac50 CCTE_Shafer_MEA_dev_AB, rNFA mc5): 5020 nM | Bioactivity in the rNFA (in words) (2D rat cortical cultures [2]): alter multiple parameters of network formation | hitc CCTE_Shafer_MEA_dev_active_electrodes_number (2D rat cortical cultures [2]): 1 | hitc CCTE_Shafer_MEA_dev_burst_duration_mean (2D rat cortical cultures [2]): 1 | hitc CCTE_Shafer_MEA_dev_burst_rate (2D rat cortical cultures [2]): 1 | hitc CCTE_Shafer_MEA_dev_bursting_electrodes_number (2D rat cortical cultures [2]): 1 | hitc CCTE_Shafer_MEA_dev_correlation_coefficient_mean (2D rat cortical cultures [2]): 1 | hitc CCTE_Shafer_MEA_dev_firing_rate_mean (2D rat cortical cultures [2]): 1 | hitc CCTE_Shafer_MEA_dev_inter_network_spike_interval_mean (2D rat cortical cultures [2]): 0 | hitc CCTE_Shafer_MEA_dev_interburst_interval_mean (2D rat cortical cultures [2]): 1 | hitc CCTE_Shafer_MEA_dev_mutual_information_norm (2D rat cortical cultures [2]): 1 | hitc CCTE_Shafer_MEA_dev_network_spike_duration_std (2D rat cortical cultures [2]): 1 | hitc CCTE_Shafer_MEA_dev_network_spike_number (2D rat cortical cultures [2]): 1 | hitc CCTE_Shafer_MEA_dev_network_spike_peak (2D rat cortical cultures [2]): 1 | hitc CCTE_Shafer_MEA_dev_per_burst_interspike_interval (2D rat cortical cultures [2]): 1 | hitc CCTE_Shafer_MEA_dev_per_burst_spike_percent (2D rat cortical cultures [2]): 1 | hitc CCTE_Shafer_MEA_dev_per_network_spike_spike_number_mean (2D rat cortical cultures [2]): 1 | hitc CCTE_Shafer_MEA_dev_per_network_spike_spike_percent (2D rat cortical cultures [2]): 1 | hitc CCTE_Shafer_MEA_dev_spike_duration_mean (2D rat cortical cultures [2]): 1 | AC50 (2D rat cortical cultures [2]; read-out: ac50 CCTE_Shafer_MEA_dev_active_electrodes_number): 196 nM | AC50 (2D rat cortical cultures [2]; read-out: ac50 CCTE_Shafer_MEA_dev_burst_duration_mean): 33 nM | AC50 (2D rat cortical cultures [2]; read-out: ac50 CCTE_Shafer_MEA_dev_burst_rate): 42 nM | AC50 (2D rat cortical cultures [2]; read-out: ac50 CCTE_Shafer_MEA_dev_bursting_electrodes_number): 117 nM | AC50 (2D rat cortical cultures [2]; read-out: ac50 CCTE_Shafer_MEA_dev_correlation_coefficient_mean): 766 nM | AC50 (2D rat cortical cultures [2]; read-out: ac50 CCTE_Shafer_MEA_dev_firing_rate_mean): 63 nM | AC50 (2D rat cortical cultures [2]; read-out: ac50 CCTE_Shafer_MEA_dev_interburst_interval_mean): 249 nM | AC50 (2D rat cortical cultures [2]; read-out: ac50 CCTE_Shafer_MEA_dev_mutual_information_norm): 112 nM | AC50 (2D rat cortical cultures [2]; read-out: ac50 CCTE_Shafer_MEA_dev_network_spike_duration_std): 262 nM | AC50 (2D rat cortical cultures [2]; read-out: ac50 CCTE_Shafer_MEA_dev_network_spike_number): 33 nM | AC50 (2D rat cortical cultures [2]; read-out: ac50 CCTE_Shafer_MEA_dev_network_spike_peak): 1810 nM | AC50 (2D rat cortical cultures [2]; read-out: ac50 CCTE_Shafer_MEA_dev_per_burst_interspike_interval): 67 nM | AC50 (2D rat cortical cultures [2]; read-out: ac50 CCTE_Shafer_MEA_dev_per_burst_spike_percent): 244 nM | AC50 (2D rat cortical cultures [2]; read-out: ac50 CCTE_Shafer_MEA_dev_per_network_spike_spike_number_mean): 766 nM | AC50 (2D rat cortical cultures [2]; read-out: ac50 CCTE_Shafer_MEA_dev_per_network_spike_spike_percent): 2300 nM | AC50 (2D rat cortical cultures [2]; read-out: ac50 CCTE_Shafer_MEA_dev_spike_duration_mean): 511 nM | Cytotoxicity / cell viability in the BrainSphere resazurin assay (in words) (BrainSpheres): positive hit call for cytotoxicity | AC50 (BrainSpheres; Homo sapiens, 312 h): 18000 nM | ACC BrainSphere.Cyto (BrainSpheres; human): 8.7 µM | BMD BrainSphere.Cyto (BrainSpheres; human): 8.4 µM | Cytotoxicity / cell viability in the BrainSphere resazurin assay (in words) (BrainSpheres; human): appeared to demonstrate cytotoxic effects at 30 and 90 µM | Cytotoxicity hit (BrainSpheres; human): 1* | hitc BrainSphere.Cyto (BrainSpheres; human): 1 | AC50 (BrainSpheres): 18100 nM

CC(C)(c1ccc(O)cc1)c1ccc(O)cc1 [Bisphenol A]
hitc CCTE_Shafer_MEA_dev_AB (2D rat cortical cultures [1]; rNFA mc5 hit call): 0 | Number of active endpoints in the rNFA (2D rat cortical cultures [2]; of 17 MEA endpoints, ref Brown et al. [2016], Carstens et al. [2022], Frank et al. [2017b], Shafer et al. [2019], ToxCast invitrodb (v4.2)): two | AC50 (2D rat cortical cultures [2]; rNFA mc5, aenm active_electrodes_number, read-out: ac50 CCTE_Shafer_MEA_dev_active_electrodes_number): 15000 nM | AC50 (2D rat cortical cultures [2]; rNFA mc5, aenm bursting_electrodes_number, read-out: ac50 CCTE_Shafer_MEA_dev_bursting_electrodes_number): 9890 nM | hitc CCTE_Shafer_MEA_dev_active_electrodes_number (2D rat cortical cultures [2]; rNFA mc5 hit call, aenm active_electrodes_number): 1 | hitc CCTE_Shafer_MEA_dev_burst_duration_mean (2D rat cortical cultures [2]; rNFA mc5 hit call, aenm burst_duration_mean): 0 | hitc CCTE_Shafer_MEA_dev_burst_rate (2D rat cortical cultures [2]; rNFA mc5 hit call, aenm burst_rate): 0 | hitc CCTE_Shafer_MEA_dev_bursting_electrodes_number (2D rat cortical cultures [2]; rNFA mc5 hit call, aenm bursting_electrodes_number): 1 | hitc CCTE_Shafer_MEA_dev_correlation_coefficient_mean (2D rat cortical cultures [2]; rNFA mc5 hit call, aenm correlation_coefficient_mean): 0 | hitc CCTE_Shafer_MEA_dev_firing_rate_mean (2D rat cortical cultures [2]; rNFA mc5 hit call, aenm firing_rate_mean): 0 | hitc CCTE_Shafer_MEA_dev_inter_network_spike_interval_mean (2D rat cortical cultures [2]; rNFA mc5 hit call, aenm inter_network_spike_interval_mean): 0 | hitc CCTE_Shafer_MEA_dev_interburst_interval_mean (2D rat cortical cultures [2]; rNFA mc5 hit call, aenm interburst_interval_mean): 0 | hitc CCTE_Shafer_MEA_dev_mutual_information_norm (2D rat cortical cultures [2]; rNFA mc5 hit call, aenm mutual_information_norm): 0 | hitc CCTE_Shafer_MEA_dev_network_spike_duration_std (2D rat cortical cultures [2]; rNFA mc5 hit call, aenm network_spike_duration_std): 0 | hitc CCTE_Shafer_MEA_dev_network_spike_number (2D rat cortical cultures [2]; rNFA mc5 hit call, aenm network_spike_number): 0 | hitc CCTE_Shafer_MEA_dev_network_spike_peak (2D rat cortical cultures [2]; rNFA mc5 hit call, aenm network_spike_peak): 0 | hitc CCTE_Shafer_MEA_dev_per_burst_interspike_interval (2D rat cortical cultures [2]; rNFA mc5 hit call, aenm per_burst_interspike_interval): 0 | hitc CCTE_Shafer_MEA_dev_per_burst_spike_percent (2D rat cortical cultures [2]; rNFA mc5 hit call, aenm per_burst_spike_percent): 0 | hitc CCTE_Shafer_MEA_dev_per_network_spike_spike_number_mean (2D rat cortical cultures [2]; rNFA mc5 hit call, aenm per_network_spike_spike_number_mean): 0 | hitc CCTE_Shafer_MEA_dev_per_network_spike_spike_percent (2D rat cortical cultures [2]; rNFA mc5 hit call, aenm per_network_spike_spike_percent): 0 | hitc CCTE_Shafer_MEA_dev_spike_duration_mean (2D rat cortical cultures [2]; rNFA mc5 hit call, aenm spike_duration_mean): 0 | AC50 (BrainSpheres; Homo sapiens, 312 h, resazurin, day 13, Supplement 3 prints it also for curves with hit call 0): 6800 nM | Cytotoxicity hit (BrainSpheres; resazurin, after 13 days of exposure): 0 | hitc BrainSphere.Cyto (BrainSpheres; resazurin, day 13, tcplfit2): 0 | BMD BrainSphere.Cyto (BrainSpheres; tcplfit2 BMD at benchmark response (1.349*SD of baseline controls)): 680 µM | ACC BrainSphere.Cyto (BrainSpheres; tcplfit2 output ACC, activity cutoff in Supplemental Table 1): 11523 µM
